In patent US11419856B2, “Pharmaceutical combinations for use in the treatment of neoplastic diseases” (Basilea Pharmaceutica International AG, priority 2017, dated 2022):

Key:
Jurkat-GFP cells = experiment: Apoptosis assay (EGFP/FACS) in Jurkat-GFP cells; assay type: cell-based, human; settings: data not shown; for EC50: Homo sapiens, read-out: EC50, induction of apoptosis; for maximal apoptosis induction: maximum of dose-response curve
Protocol: (§1) The following human cell line was used: MDA-MB-231 (ATCC: HTB-26). In addition the following enhanced green fluorescent protein (EGFP)-transfected human cell lines were used: NCI-H460 (ATCC: HTB-177) (H460GFP) and Jurkat (ATCC: TIB-152) (JurkatGFP). NCI-H460 and Jurkat cell lines were cultured in RPMI-1640 tissue culture medium containing 10% (v/v) fetal calf serum, 2 mM glutamine, non-essential amino acids and 50 μg/ml penicillin/streptomycin (Complete medium) (Sigma, Buchs, Switzerland). The MDA-MB-231 cell line was cultured in Dulbecco's Modified Eagle Medium (DMEM) (high glucose) tissue culture medium containing 10% (v/v) fetal calf serum, 1 mM sodium pyruvate and 50 μg/ml penicillin/streptomycin (i.e. Complete Medium) (Sigma, Buchs, Switzerland).
General growth conditions were 37° C. and 7.5% CO2. For the microtubule destabilization assay cell lines were cultured in 5% CO2.
The assays were performed in commercially available sterile 96-well U-bottom or 24-well flat-bottom tissue culture plates (Falcon). A defined number of test cells expressing enhanced green fluorescent protein (EGFP) (H460 cells: 600 μl of 30′000 cells/ml in 24-well flat-bottom plates, Jurkat cells: 600 μl of 400′000 cells/ml in […]) were plated either 24 hours before treatment in case of the adherent H460 cell line, or one hour prior to the start of the treatment for Jurkat cells. Between seeding and addition of compounds, the cells were incubated at 37° C. under 7.5% CO2. Subsequently, BAL27862 and eribulin (Halaven®, Ch.-B. 60363CRN1, Eisai) which were dissolved in Complete Medium were both added from stock solutions at 5× the final concentration in 200 μl to the wells, resulting in a final well-volume of 1 ml. The test plates were then incubated for the indicated time. For time course experiments with Jurkat cells, the 96-well plates were removed shortly at the indicated time from the incubator, shaken in order to suspend the cells and an aliquot of 200 μl cell suspension was then transferred to a 96-well U-bottom plate and measured immediately on a fluorescence-activated cell sorting (FACS)-Canto II with a high through-put sampler (HTS)-module. […]
The quantification of the relative amount of apoptotic cells within a cell population was determined according to the Reference of Strebel et al., Cytometry 2001, 43(2), Green Fluorescent Protein as Novel Tool to Measure Apoptosis and Necrosis). By monitoring the EGFP fluorescence activity excited at […] and measured at […] on a FACS-Cantoll™, it is possible to distinguish between proliferating cells, apoptotic cells and necrotic cells within the same cell population. […] As a readout the relative abundance of the cells belonging to M2 (apoptotic population) were expressed.

NCI-H460-GFP cells = experiment: Apoptosis assay (EGFP/FACS) in NCI-H460-GFP cells; assay type: cell-based; settings: Homo sapiens, data not shown, read-out: EC50, induction of apoptosis
Protocol: as §1, with “The MDA-MB-231 cell line was cultured in Dulbecco's Modified Eagle Medium (DMEM) (high glucose) tissue culture medium containing 10% (v/v) fetal calf serum, 1 mM sodium pyruvate and 50 μg/ml penicillin/streptomycin (i.e. Complete Medium) (Sigma, Buchs, Switzerland).” left out
The assays were performed in commercially available sterile 96-well U-bottom or 24-well flat-bottom tissue culture plates (Falcon). […] For time course experiments with Jurkat cells, the 96-well plates were removed shortly at the indicated time from the incubator, shaken in order to suspend the cells and an aliquot of 200 μl cell suspension was then transferred to a 96-well U-bottom plate and measured immediately on a fluorescence-activated cell sorting (FACS)-Canto II with a high through-put sampler (HTS)-module. […]
The quantification of the relative amount of apoptotic cells within a cell population was determined according to the Reference of Strebel et al., Cytometry 2001, 43(2), Green Fluorescent Protein as Novel Tool to Measure Apoptosis and Necrosis). […] As a readout the relative abundance of the cells belonging to M2 (apoptotic population) were expressed.

[1] = Pharmacokinetic profile in mouse plasma (LC-MS/MS), single agents vs combination; assay type: in vivo; settings: non-tumor bearing mice; BAL101553 daily, eribulin every two days to steady state; 10 minutes to 24 hours; FIG. 6
Protocol: Female NCI Ath/nu non-tumor bearing mice were treated either with BAL101553, eribulin or with a combination of BAL101553 and eribulin where eribulin was administered 30 minutes before BAL101553. Control animals received vehicle control. The mice were dosed until steady state was reached (BAL101553 was dosed daily and eribulin was dosed once every two days, the doses used for the combination-treatment matched those used in the monotherapy). Blood was taken from every animal according to a determined schedule covering a time window of 10 minutes to 24 hours, processed for plasma and subsequently analyzed by LC-MS/MS for the determination of BAL27862 (parent drug of BAL101553) and eribulin concentrations (ng/ml plasma). Data points represent mean values of ng/ml plasma concentration+/−SEM (n=3 animals).
The in vivo combination of BAL101553 with eribulin in the TNBC xenograft model MDA-MB-231 led to a higher proportion of cures or tumor free animals than observed in the single agent treatment groups. […] The mice were either treated with BAL101553, eribulin or the combination thereof, and plasma concentrations of BAL27862 and eribulin at various time points were determined (FIG. 6).

HCT116 = experiment: Soft agar assay, IC50 of single agents in HCT116; assay type: cell-based; settings: Homo sapiens, HCT-116
Protocol: (§2) Example 5: Determination of Drug Interaction in Cell Lines by Soft Agar Assay
(§3) The combination of BAL101553 with eribulin was tested in various cell lines by soft agar assay. Table 1 and Table 2 present the results according to coefficient of drug interaction based on colony number (Table 1) and total area of colonies (Table 2). In both cases the coefficient of drug interaction is calculated according to the formula described in Zhao et al., J Intercult Ethnopharmacol. 2014, 3(2): 68-72): (combination/untreated)/[(compound1/untreated)×(compound2/untreated)]

MiaPaCa2 = experiment: Soft agar assay, IC50 of single agents in MiaPaCa2; assay type: cell-based; settings: Homo sapiens, MIA PaCa-2
Protocol: as §2, §3

| SMILES | EC50 (Jurkat-GFP cells) [nM] | maximal apoptosis induction (Jurkat-GFP cells) | EC50 (NCI-H460-GFP cells) [nM] | plasma concentrations, single agent vs combination [1] | IC50 (HCT116) [nM] | IC50 (MiaPaCa2) [nM] |
| --- | --- | --- | --- | --- | --- | --- |
| N#CCCNc1nonc1-c1nc2ccccc2n1CC(=O)c1ccc(N)cc1 [BAL27862, 3-(4-{1-[2-(4-Amino-phenyl)-2-oxo-ethyl]-1H-benzoimidazol-2-yl}-furazan-3-ylamino)-propionitrile] | 15 | 70-80% | 24 | did not change significantly | 18 | 9 |
| C=C1C[C@@H]2CC[C@@]34C[C@H]5O[C@H]6[C@@H](O3)[C@H]3O[C@H](CC[C@@H]3O[C@H]6[C@H]5O4)CC(=O)C[C@@H]3[C@@H](OC)[C@@H](C[C@H](O)CN)O[C@H]3C[C@H]3O[C@@H](CC[C@@H]1O2)C[C@@H](C)C3=C.CS(=O)(=O)O [Eribulin, (2R, 3R, 3aS, 7R, 8aS, 9S, 10aR, 11S, 12R, 13aR, 13bS, 15S, 18S, 21S, 24S, 26R, 28R, 29aS)-2-[(2S)-3-Amino-2-hydroxypropyl]-3-methoxy-26-methyl-20,27-dimethylidenehexacosahydro-11,15:18,21:24,28-triepoxy-7,9-ethano-12,15-methano-9H,15H-furo[3,2-i]furo[2′,3′:5,6]pyrano[4,3-b][1,4]dioxacyclopentacosin-5(4H)-one methanesulfonate (salt)] | 0.8 | about 70% | 1 | did not change significantly | 1 | 0.5 |
